Experiment [1] has as its system Staphylococcus aureus (S. aureus) 11540 strain. Description: standard microdilution assay, minimum inhibitory concentration (MIC). It is filed as cell-based. In a few lines: (§1)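 MICs were determined by broth microdilution per CLSI protocols (M7-A8, M100-S20), with reference strains run for quality control. Tested strains were E. coli ATCC25922 and S. aureus 11540. Activity was scored +/− against a 16 µg/mL cutoff.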

Experiment [2] relates to Eschericia coli (E. Coli) strain ATCC25922. Described as above. Type of experiment: cell-based. Conditions: Escherichia coli. In a few lines:
as §1

On to `CC(=N)NCC[C@@H]1CCC[C@@H](c2ccc(-n3cc4cc(-c5cc(CCC[C@@H](N)CO)cc(Cl)c5F)[nH]c4nc3=O)cc2)N1` [Compound 151], for which the MIC in experiment [1] (Table 2, 11540 strain) is no more than 16 µg/mL; in experiment [2] (Table 2, strain ATCC25922), no more than 16 µg/mL.
As for `C[C@H](N)CCCC1CC(c2cc3cn(-c4ccc([C@H](C)NCCCNC(=N)N)cc4)c(=O)nc3[nH]2)CCN1` (some centres unmarked) [Compound 152], the MIC in experiment [1] (Table 2, 11540 strain) is no more than 16 µg/mL; in experiment [2] (Table 2, strain ATCC25922), no more than 16 µg/mL.
On to `C[C@H](N)CCCc1cc(Cl)c(F)c(-c2cc3cn(-c4ccc(CO[C@H](CCNC(=N)N)CN(C)C)cc4)c(=O)nc3[nH]2)c1` [Compound 159], for which the MIC in experiment [1] (Table 2a) was no more than 16 µg/mL; in experiment [2] (ATCC25922, Table 2a), no more than 16 µg/mL.
Turning to `C=C[C@H](N)CCCc1cc(Cl)c(F)c(-c2cc3cn(-c4ccc(CO[C@H](CCNC(=N)N)CNC(=N)N)cc4)c(=O)nc3[nH]2)c1` [Compound 160], the MIC was no more than 16 µg/mL in experiment [1] (Table 2a) and no more than 16 µg/mL in experiment [2] (ATCC25922, Table 2a).
On to `COC[C@H](N)CCCc1cc(OC(F)(F)F)c(F)c(-c2cc3cn(-c4ccc(CO[C@H](CCNC(C)=N)CNC(C)=N)cc4)c(=O)nc3[nH]2)c1` [Compound 161], for which the MIC in experiment [1] (Table 2a) was no more than 16 µg/mL; in experiment [2] (ATCC25922, Table 2a), no more than 16 µg/mL.
Take `N=C(N)NCC[C@H](CNC(=N)N)OCc1ccc(-n2cc3cc(-c4cc(CCC[C@@H](N)CF)cc(Cl)c4F)[nH]c3nc2=O)cc1` [Compound 162]: the MIC in experiment [1] (Table 2a) is no more than 16 µg/mL; in experiment [2] (ATCC25922, Table 2a) it was no more than 16 µg/mL.
On to `N=C(N)NCC[C@H](CNC(=N)N)OCc1ccc(-n2cc3cc(-c4cc(CCC[C@@H](N)CO)cc(Cl)c4F)[nH]c3nc2=O)cc1` [Compound 163], for which the MIC in experiment [1] (Table 2a) was no more than 16 µg/mL; in experiment [2] (ATCC25922, Table 2a), no more than 16 µg/mL.
On to `N=C(N)NCC[C@H](CNC(=N)N)OCc1ccc(-n2cc3cc(-c4cc(CCC[C@@H](N)C5CC5)cc(Cl)c4F)[nH]c3nc2=O)cc1` [Compound 164], for which the MIC was no more than 16 µg/mL in experiment [1] (Table 2a) and no more than 16 µg/mL in experiment [2] (ATCC25922, Table 2a).
Consider `COC[C@H](N)CCCc1cc(OC(F)(F)F)c(F)c(-c2cc3cn(-c4ccc(CO[C@H](CCNC(=N)N)CNC(=N)N)cc4)c(=O)nc3[nH]2)c1` [Compound 165], for which the MIC is no more than 16 µg/mL in experiment [1] (Table 2a) and no more than 16 µg/mL in experiment [2] (ATCC25922, Table 2a).
In the case of `CC(C)(N)CCCc1cc(Cl)c(F)c(-c2cc3cn(-c4ccc(CO[C@H](CCNC(=N)N)CNC(=N)N)cc4)c(=O)nc3[nH]2)c1` [Compound 166], the MIC was no more than 16 µg/mL in experiment [1] (Table 2a) and no more than 16 µg/mL in experiment [2] (ATCC25922, Table 2a).
For `C[C@H](N)CCCc1cc(Cl)c(F)c(-c2cc3cn(-c4ccc(CO[C@H](CCNS(C)(=O)=O)CNC(=N)N)cc4)c(=O)nc3[nH]2)c1` [Compound 167], the MIC in experiment [1] (Table 2a) is no more than 16 µg/mL; in experiment [2] (ATCC25922, Table 2a) it was no more than 16 µg/mL.
Regarding `CC(=N)NC[C@@H](CCNC(=N)N)OCc1ccc(-n2cc3cc(-c4cc(CCC[C@H](C)N)cc(Cl)c4F)[nH]c3nc2=O)cc1` [Compound 168], the MIC in experiment [1] (Table 2a) is no more than 16 µg/mL; in experiment [2] (ATCC25922, Table 2a) it was no more than 16 µg/mL.
For `CC(=N)NCC[C@H](CNC(C)=N)OCc1ccc(-n2cc3cc(-c4cc(CCC[C@H](C)N)cc(Cl)c4F)[nH]c3nc2=O)cc1` [Compound 169], the MIC in experiment [1] (Table 2a) was no more than 16 µg/mL; in experiment [2] (ATCC25922, Table 2a) it was no more than 16 µg/mL.
As for `C[C@H](N)CCCc1cc(Cl)c(F)c(-c2cc3cn(-c4ccc(CO[C@H](CCNC(N)=O)CNC(=N)N)cc4)c(=O)nc3[nH]2)c1` [Compound 170], the MIC was no more than 16 µg/mL in experiment [1] (Table 2a) and no more than 16 µg/mL in experiment [2] (ATCC25922, Table 2a).
For the molecule `CC(=N)NCC[C@H](CNC(=N)N)OCc1ccc(-n2cc3cc(-c4cc(CCC[C@H](C)N)cc(Cl)c4F)[nH]c3nc2=O)cc1` [Compound 171], the MIC in experiment [1] (Table 2a) was no more than 16 µg/mL; in experiment [2] (ATCC25922, Table 2a) it was no more than 16 µg/mL.
Take `CC(=N)NCC[C@@H](CNC(=N)N)OCc1ccc(-n2cc3cc(-c4cc(CCC[C@H](C)N)cc(Cl)c4F)[nH]c3nc2=O)cc1` [Compound 172]: the MIC in experiment [1] (Table 2a) is no more than 16 µg/mL; in experiment [2] (ATCC25922, Table 2a), no more than 16 µg/mL.
Turning to `CC(=N)NCC[C@@H](CNC(C)=N)OCc1ccc(-n2cc3cc(-c4cc(CCC[C@H](C)N)cc(Cl)c4F)[nH]c3nc2=O)cc1` [Compound 173], the MIC in experiment [1] (Table 2a) is no more than 16 µg/mL; in experiment [2] (ATCC25922, Table 2a), no more than 16 µg/mL.
As for `C[C@H](N)CCCc1cc(Cl)c(F)c(-c2cc3cn(-c4ccc(CO[C@@H](CCNC(=N)N)CNC(=N)N)cc4)c(=O)nc3[nH]2)c1` [Compound 174], the MIC in experiment [1] (Table 2a) is no more than 16 µg/mL; in experiment [2] (ATCC25922, Table 2a), no more than 16 µg/mL.
For the molecule `CC(=N)NC[C@H](CCNC(=N)N)OCc1ccc(-n2cc3cc(-c4cc(CCC[C@H](C)N)cc(Cl)c4F)[nH]c3nc2=O)cc1` [Compound 175], the MIC is no more than 16 µg/mL in experiment [1] (Table 2a) and no more than 16 µg/mL in experiment [2] (ATCC25922, Table 2a).
For `CC(=N)NCC[C@H](CN)OCc1ccc(-n2cc3cc(-c4cc(CCC[C@H](C)N)cc(Cl)c4F)[nH]c3nc2=O)cc1` [Compound 176], the MIC was no more than 16 µg/mL in experiment [1] (Table 2a) and no more than 16 µg/mL in experiment [2] (ATCC25922, Table 2a).
Consider `C[C@H](N)CCCc1cc(Cl)c(F)c(-c2cc3cn(-c4ccc(CO[C@H](CCN5CCNC5=O)CNC(=N)N)cc4)c(=O)nc3[nH]2)c1` [Compound 177], for which the MIC in experiment [1] (Table 2a) is no more than 16 µg/mL; in experiment [2] (ATCC25922, Table 2a) it was no more than 16 µg/mL.
Turning to `CC(=N)NCC[C@@H](CN)OCc1ccc(-n2cc3cc(-c4cc(CCC[C@H](C)N)cc(Cl)c4F)[nH]c3nc2=O)cc1` [Compound 178], the MIC in experiment [1] (Table 2a) was no more than 16 µg/mL; in experiment [2] (ATCC25922, Table 2a), no more than 16 µg/mL.

As usually defined, the MIC is the lowest concentration that inhibits growth of the organism. High values mean weaker potency, low ones greater potency.

The values are drawn from patent publication US10947237B2, “Antimicrobial compounds and methods of making and using the same” (BIOVERSYS AG, priority 2015, dated 2021).
